The results in this text go back to paper PMC9225722, “Synthesis and biological evaluation of thieno[3,2-c]pyrazol-3-amine derivatives as potent glycogen synthase kinase 3β inhibitors for Alzheimer’s disease” (Journal of Enzyme Inhibition and Medicinal Chemistry, 2022).

The target of one data set is GSK-3β (Homo sapiens, UniProt P49841). Kind of data set: GSK-3β kinase assay (calliper mobility shift assay). It is filed as biochemical. The conditions noted are these: for IC50: mean ± SD from two separate experiments, calliper mobility shift assay; for fold less active than 16b (GSK-3β inhibition): compared with 16b.
Data set [1] relates to phosphorylation of GSK-3β at Ser9. The data set is described as follows: Western blot of p-GSK-3β (Ser9) in SH-SY5Y cells. It is filed as cell-based, human. The conditions noted are these: LiCl positive control, concentration not given; 2.5 h; control 0.33. An excerpt:
GSK-3β is activated by phosphorylation at Tyr216 and is inhibited by phosphorylation at Ser9 [48]. As one of the substrates of Akt (protein kinase B), GSK-3 can inhibit Akt[49]. The inhibition of GSK-3β increases the p-Akt expression and activates the PI3K/Akt pathway, and that, in turn, phosphorylates the GSK-3β at the Ser9 site[50]^,[51]. […] As shown in Figure 6(A), LiCl greatly promoted GSK-3β phosphorylation at Ser9 (p-GSK-3β/GAPDH: 0.60 vs 0.33). […] Therefore, in cellular level, compound 16b was confirmed to have a direct effect on GSK-3β.
Figure 6. (A) The effect of 16b on phosphorylation of GSK-3β at Ser9; (B) the effect of 16b on β-catenin abundance. Protein expressions were detected by immunoblot analysis with a specific antibody. Values are reported as the mean ± SD of three independent experiments. *p < 0.05, **p < 0.01, ***p < 0.001 vs control.
SH-SY5Y cells (1 × 10^6) were seeded in 12-well plates (Corning, Los Altos, MA, USA) and incubated with compound 16b or LiCl at the indicated concentrations for 2.5 h at 37 °C in 5% CO2. At the end of incubation, cells were lysed by addition of ice-cold RIPA buffer containing a protease inhibitor cocktail. The protein quantification was determined using a BCA protein assay kit (Jiangsu KeyGEN BioTECH Co., Ltd., Nanjing, China). Cellular lysates were mixed with an equal volume of SDS (sodium dodecyl sulfate) loading buffer (Jiangsu KeyGEN BioTECH Co., Ltd., Nanjing, China) and separated by electrophoresis (Bio-rad Power Supplies Basic, Shanghai, China) in polyacrylamide gel. Proteins were transferred from acrylamide gels to nitrocellulose membranes and blocked in a blocking buffer (PBS, 5% non-fat milk) for 1.5 to 2 h at 20 °C. […] The blots were washed by TBST for 20 min and detected with ECL chemiluminescent reagent (Jiangsu KeyGEN BioTECH Co., Ltd., Nanjing, China) for 3 min. Pixel intensity was quantitated using gel imaging system (SYNGENE G:BOX/iChemi XR5, ISS, San Diego, CA, US) and Gel-Pro32 software (Media Cybernetics, Bethesda, MD, USA). […]

GSK-3β, sequence (P49841 whole entry): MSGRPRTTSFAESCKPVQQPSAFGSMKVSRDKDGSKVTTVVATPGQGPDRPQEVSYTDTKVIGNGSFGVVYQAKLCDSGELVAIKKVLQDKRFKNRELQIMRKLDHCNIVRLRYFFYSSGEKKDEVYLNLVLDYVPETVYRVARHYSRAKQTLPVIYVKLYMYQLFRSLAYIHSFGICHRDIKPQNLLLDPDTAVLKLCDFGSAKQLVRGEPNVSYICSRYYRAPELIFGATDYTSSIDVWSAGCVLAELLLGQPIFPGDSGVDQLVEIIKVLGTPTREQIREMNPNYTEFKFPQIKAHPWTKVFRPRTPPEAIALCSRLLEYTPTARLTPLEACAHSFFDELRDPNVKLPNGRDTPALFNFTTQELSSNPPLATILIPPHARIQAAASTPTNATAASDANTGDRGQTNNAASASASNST

Regarding `COc1ccccc1-c1ccncc1-c1cc2[nH]nc(NC(=O)C(C)C)c2s1` [Compound 18e, N-(5-(4-(2-Methoxyphenyl)pyridin-3-yl)-1H-thieno[3,2-c]pyrazol-3-yl)isobutyramide], the melting point – broadly, the temperature, or range, at which the solid turns liquid – lay in the range of 213 to 215 °C. At GSK-3β, the concentration for half-maximal inhibition (IC50) – broadly, the concentration needed to halve the response being measured – came to 0.064 ± 0.0027 µM.

The compound `Cc1ccc(-c2ccncc2-c2cc3[nH]nc(NC(=O)C(C)C)c3s2)cc1` [Compound 18d, N-(5-(4-(4-Methylphenyl)pyridin-3-yl)-1H-thieno[3,2-c]pyrazol-3-yl)isobutyramide] had a melting point of 239 to 240 °C. The half-inhibitory concentration (IC50) on GSK-3β was found to be 0.099 ± 0.0048 µM.

In turn, `CC(C)C(=O)Nc1n[nH]c2cc(-c3cnccc3-c3ccccc3F)sc12` [Compound 18h, N-(5-(4-(2-Fluorophenyl)pyridin-3-yl)-1H-thieno[3,2-c]pyrazol-3-yl)isobutyramide] yielded a melting point above 240 °C. Also, at GSK-3β, the concentration for half-maximal inhibition (IC50) stood at 0.094 ± 0.0035 µM.

As for `CC(C)C(=O)Nc1n[nH]c2cc(-c3cnccc3-c3ccc(F)cc3)sc12` [Compound 18j, N-(5-(4-(4-Fluorophenyl)pyridin-3-yl)-1H-thieno[3,2-c]pyrazol-3-yl)isobutyramide], the melting point is above 240 °C. Besides, on GSK-3β, the IC50 stood at 0.015 ± 0.0003 µM.

The compound `CC(C)C(=O)Nc1n[nH]c2cc(-c3cnccc3-c3ccc(C(F)(F)F)cc3)sc12` [Compound 18l, N-(5-(4-(4-(trifluoromethyl)phenyl)pyridin-3-yl)-1H-thieno[3,2-c]pyrazol-3-yl)isobutyramide] returned a melting point above 240 °C. In addition, on GSK-3β, the half-maximal inhibitory concentration (IC50) was 0.158 ± 0.0089 µM.

`[Cl-].[Li+]` [LiCl, reference compound]: the “p-GSK-3β/GAPDH ratio (Ser9)” value in data set [1] stood at 0.60.

The compound `CC(C)C(=O)Nc1n[nH]c2cc(-c3cnccc3-c3ccc(-c4ccccc4)cc3)sc12` [Compound 18m, N-(5-(4-([1,1'-Biphenyl]-4-yl)pyridin-3-yl)-1H-thieno[3,2-c]pyrazol-3-yl)isobutyramide] showed a melting point of 159 to 161 °C. For the same compound, on GSK-3β, the IC50 worked out at 0.387 ± 0.0212 µM.

The compound `O=C(Nc1n[nH]c2cc(-c3cccnc3)sc12)C1CC1` [Compound 16a, N-(5-(pyridin-3-yl)-1H-thieno[3,2-c]pyrazol-3-yl)cyclopropanecarboxamide] had a melting point of 224 to 226 °C. The IC50 on GSK-3β came to 0.0044 ± 0.0002 µM.

`CC(C)C(=O)Nc1n[nH]c2cc(-c3cnccc3-c3cccc(F)c3)sc12` [Compound 18i, N-(5-(4-(3-Fluorophenyl)pyridin-3-yl)-1H-thieno[3,2-c]pyrazol-3-yl)isobutyramide] displayed a melting point above 240 °C. The IC50 at GSK-3β worked out at 0.173 ± 0.0068 µM.

`COc1ccc(-c2ccncc2-c2cc3[nH]nc(NC(=O)C(C)C)c3s2)cc1` [Compound 18g, N-(5-(4-(4-Methoxyphenyl)pyridin-3-yl)-1H-thieno[3,2-c]pyrazol-3-yl)isobutyramide] gave a melting point above 240 °C. Further, the concentration for half-maximal inhibition (IC50) on GSK-3β is 0.105 ± 0.0052 µM.

`CC(C)C(=O)Nc1n[nH]c2cc(-c3cnccc3-c3cccc(C(F)(F)F)c3)sc12` [Compound 18k, N-(5-(4-(3-(trifluoromethyl)phenyl)pyridin-3-yl)-1H-thieno[3,2-c]pyrazol-3-yl)isobutyramide]: the melting point lay in the range of 202 to 204 °C. In addition, the IC50 at GSK-3β stood at 0.107 ± 0.0061 µM.

As for `O=C(Nc1n[nH]c2cc(-c3cncc(-c4ccccc4)c3)sc12)C1CC1` [Compound 17a, N-(5-(5-Phenylpyridin-3-yl)-1H-thieno[3,2-c]pyrazol-3-yl)cyclopropanecarboxamide], the melting point is above 240 °C. Moreover, the “fold less active than 16a (GSK-3β inhibition)” value at GSK-3β (compared with 16a) is listed as “about 4 fold”. Also, on GSK-3β, the 50% inhibitory concentration (IC50) came to 0.02 ± 0.0011 µM.

In turn, `CCCS(=O)(=O)Nc1n[nH]c2cc(-c3cccnc3)sc12` [Compound 16d, N-(5-(pyridin-3-yl)-1H-thieno[3,2-c]pyrazol-3-yl)propane-1-sulphonamide] displayed a melting point of 208 to 210 °C. Also, on GSK-3β, the “GSK-3β inhibitory activity (in words)” value was “very weak” and the IC50 came to 1.39 ± 0.0552 µM.

`CCCS(=O)(=O)Nc1n[nH]c2cc(-c3cncc(-c4ccccc4)c3)sc12` [Compound 17d, N-(5-(5-Phenylpyridin-3-yl)-1H-thieno[3,2-c]pyrazol-3-yl)propane-1-sulphonamide]: the melting point was in the range of 112 to 114 °C. In addition, on GSK-3β, the “GSK-3β inhibitory activity (in words)” value is “not active” and the half-maximal inhibitory concentration (IC50) is above 5 µM.

As for `Cc1cccc(-c2ccncc2-c2cc3[nH]nc(NC(=O)C(C)C)c3s2)c1` [Compound 18c, N-(5-(4-(3-Methylphenyl)pyridin-3-yl)-1H-thieno[3,2-c]pyrazol-3-yl)isobutyramide], the melting point is 236 to 238 °C. Besides, the concentration for half-maximal inhibition (IC50) on GSK-3β was 0.153 ± 0.0066 µM.

On to `COc1cccc(-c2ccncc2-c2cc3[nH]nc(NC(=O)C(C)C)c3s2)c1` [Compound 18f, N-(5-(4-(3-Methoxyphenyl)pyridin-3-yl)-1H-thieno[3,2-c]pyrazol-3-yl)isobutyramide], for which the melting point lay in the range of 212 to 214 °C. For the same compound, the IC50 on GSK-3β amounted to 0.113 ± 0.0086 µM.

`CC(C)C(=O)Nc1n[nH]c2cc(-c3cnccc3-c3ccc4ccccc4c3)sc12` [Compound 18n, N-(5-(4-(naphthalen-2-yl)pyridin-3-yl)-1H-thieno[3,2-c]pyrazol-3-yl)isobutyramide] had a melting point above 240 °C. For the same compound, the “fold less active than 18a (GSK-3β inhibition)” value at GSK-3β (compared with 18a) is on record as “about 2 fold”. Also, the half-inhibitory concentration (IC50) on GSK-3β came to 0.195 ± 0.0104 µM.

In turn, `CC(C)C(=O)Nc1n[nH]c2cc(-c3cncc(-c4ccccc4)c3)sc12` [Compound 17b, N-(5-(5-Phenylpyridin-3-yl)-1H-thieno[3,2-c]pyrazol-3-yl)isobutyramide] came in with a melting point above 240 °C. Moreover, on GSK-3β, the “fold less active than 16b (GSK-3β inhibition)” value is on record as “about 4 fold” and the half-maximal inhibitory concentration (IC50) was found to be 0.014 ± 0.0006 µM.

In the case of `CCCC(=O)Nc1n[nH]c2cc(-c3cccnc3)sc12` [Compound 16c, N-(5-(pyridin-3-yl)-1H-thieno[3,2-c]pyrazol-3-yl)butyramide], the melting point was in the range of 238 to 240 °C. Further, on GSK-3β, the “fold less active than 16b (GSK-3β inhibition)” value is recorded as “about 10 fold” and the IC50 came to 0.036 ± 0.0017 µM.

With `CCCC(=O)Nc1n[nH]c2cc(-c3cncc(-c4ccccc4)c3)sc12` [Compound 17c, N-(5-(5-Phenylpyridin-3-yl)-1H-thieno[3,2-c]pyrazol-3-yl)butyramide], the melting point was above 240 °C. The IC50 on GSK-3β amounted to 0.037 ± 0.0013 µM.

On to `O=C(Nc1n[nH]c2cc(-c3cccnc3)sc12)c1ccccc1` [Compound 16e, N-(5-(pyridin-3-yl)-1H-thieno[3,2-c]pyrazol-3-yl)benzamide], for which the melting point is above 240 °C. Moreover, at GSK-3β, the “fold less active than 16b (GSK-3β inhibition)” value is “about 10 fold” and the half-maximal inhibitory concentration (IC50) is 0.033 ± 0.0016 µM.

As for `CC(C)C(=O)Nc1n[nH]c2cc(-c3cnccc3-c3ccccc3)sc12` [Compound 18a, N-(5-(4-Phenylpyridin-3-yl)-1H-thieno[3,2-c]pyrazol-3-yl)isobutyramide], the melting point was above 240 °C. Besides, the IC50 on GSK-3β turned out to be 0.084 ± 0.0032 µM.

The compound `Cc1ccccc1-c1ccncc1-c1cc2[nH]nc(NC(=O)C(C)C)c2s1` [Compound 18b, N-(5-(4-(2-Methylphenyl)pyridin-3-yl)-1H-thieno[3,2-c]pyrazol-3-yl)isobutyramide] registered a melting point above 240 °C. Also, the 50% inhibitory concentration (IC50) at GSK-3β was 0.064 ± 0.0023 µM.
